Legend:
Experiment in all cases: plasmid pCT74 unwinding, agarose gel
Assay type in all cases: biochemical
Conditions in all cases: AOH 4 µg/mL (Fig 6; 1 µg in a 20 µL reaction), 5 min pre-incubation, 37°C, Mg2+; qualitative inhibition; no ATP listed
[1] = biological target: T1, Top3 (Staphylococcus aureus, UniProt Q5HGI2)
T1 construct: gene topA; full gene in pET28a, His-tagged, E. coli BL21(DE3), Ni column; tag kept

[2] = biological target: T2, Top4 (Staphylococcus aureus, UniProt Q99S17)
T2 construct: gene topB; full gene in pET28a, His-tagged, E. coli BL21(DE3), Ni column; tag kept

[3] = biological target: T3, Topc (Staphylococcus aureus, UniProt P0A0K8+P20831)
T3 construct: gene gyrA; Top1 and Top2 combined; each in pET28a, His-tagged, E. coli BL21(DE3)

[4] = biological target: T4, Top1 (Staphylococcus aureus, UniProt P20831)
T4 construct: gene gyrA; full gene in pET28a, His-tagged, E. coli BL21(DE3), Ni column; tag kept
T4 sequence (P20831 whole entry): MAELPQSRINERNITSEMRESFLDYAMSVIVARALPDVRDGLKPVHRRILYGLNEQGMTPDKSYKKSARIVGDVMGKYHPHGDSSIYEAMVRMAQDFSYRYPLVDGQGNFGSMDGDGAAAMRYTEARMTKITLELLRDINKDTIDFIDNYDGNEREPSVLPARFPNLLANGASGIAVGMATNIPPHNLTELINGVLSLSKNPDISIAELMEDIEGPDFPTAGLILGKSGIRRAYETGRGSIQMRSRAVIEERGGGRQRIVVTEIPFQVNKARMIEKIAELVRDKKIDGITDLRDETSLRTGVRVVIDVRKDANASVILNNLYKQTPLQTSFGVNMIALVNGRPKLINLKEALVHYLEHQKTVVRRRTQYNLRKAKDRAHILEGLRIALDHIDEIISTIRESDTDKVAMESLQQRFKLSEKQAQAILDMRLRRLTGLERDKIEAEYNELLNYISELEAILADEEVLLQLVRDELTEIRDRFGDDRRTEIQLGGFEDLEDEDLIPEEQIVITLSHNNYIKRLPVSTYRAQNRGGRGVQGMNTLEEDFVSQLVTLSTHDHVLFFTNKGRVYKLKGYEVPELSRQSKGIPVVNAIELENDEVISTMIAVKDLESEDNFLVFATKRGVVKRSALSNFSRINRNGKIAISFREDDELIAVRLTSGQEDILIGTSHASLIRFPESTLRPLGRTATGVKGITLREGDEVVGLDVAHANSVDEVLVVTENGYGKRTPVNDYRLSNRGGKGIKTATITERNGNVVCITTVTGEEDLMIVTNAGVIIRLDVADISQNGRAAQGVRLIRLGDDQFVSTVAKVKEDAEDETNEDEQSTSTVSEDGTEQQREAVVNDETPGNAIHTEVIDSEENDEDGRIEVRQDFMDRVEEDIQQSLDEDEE

T2 sequence (Q99S17 whole entry): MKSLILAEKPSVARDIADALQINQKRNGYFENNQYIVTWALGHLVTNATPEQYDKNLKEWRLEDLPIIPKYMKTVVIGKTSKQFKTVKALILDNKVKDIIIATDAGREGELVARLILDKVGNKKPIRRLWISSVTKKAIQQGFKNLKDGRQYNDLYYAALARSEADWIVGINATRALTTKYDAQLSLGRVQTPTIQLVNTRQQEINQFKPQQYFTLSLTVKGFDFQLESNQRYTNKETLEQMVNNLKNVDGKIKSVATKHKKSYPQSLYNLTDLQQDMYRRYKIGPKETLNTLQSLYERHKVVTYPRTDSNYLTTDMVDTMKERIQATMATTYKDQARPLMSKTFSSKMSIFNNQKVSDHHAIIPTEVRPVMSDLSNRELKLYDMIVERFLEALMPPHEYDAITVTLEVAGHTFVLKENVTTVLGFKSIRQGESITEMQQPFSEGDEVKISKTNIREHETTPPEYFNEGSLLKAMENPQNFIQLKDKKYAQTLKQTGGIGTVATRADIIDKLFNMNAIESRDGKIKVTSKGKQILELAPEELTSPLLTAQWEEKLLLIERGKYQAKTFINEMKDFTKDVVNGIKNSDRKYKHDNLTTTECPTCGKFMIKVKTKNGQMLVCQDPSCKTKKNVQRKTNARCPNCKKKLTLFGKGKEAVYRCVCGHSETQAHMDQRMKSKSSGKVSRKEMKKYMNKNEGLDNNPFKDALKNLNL
T3 sequence (P20831 whole entry): as the sequence (P20831 whole entry) above
T3 sequence (P0A0K8 2-644): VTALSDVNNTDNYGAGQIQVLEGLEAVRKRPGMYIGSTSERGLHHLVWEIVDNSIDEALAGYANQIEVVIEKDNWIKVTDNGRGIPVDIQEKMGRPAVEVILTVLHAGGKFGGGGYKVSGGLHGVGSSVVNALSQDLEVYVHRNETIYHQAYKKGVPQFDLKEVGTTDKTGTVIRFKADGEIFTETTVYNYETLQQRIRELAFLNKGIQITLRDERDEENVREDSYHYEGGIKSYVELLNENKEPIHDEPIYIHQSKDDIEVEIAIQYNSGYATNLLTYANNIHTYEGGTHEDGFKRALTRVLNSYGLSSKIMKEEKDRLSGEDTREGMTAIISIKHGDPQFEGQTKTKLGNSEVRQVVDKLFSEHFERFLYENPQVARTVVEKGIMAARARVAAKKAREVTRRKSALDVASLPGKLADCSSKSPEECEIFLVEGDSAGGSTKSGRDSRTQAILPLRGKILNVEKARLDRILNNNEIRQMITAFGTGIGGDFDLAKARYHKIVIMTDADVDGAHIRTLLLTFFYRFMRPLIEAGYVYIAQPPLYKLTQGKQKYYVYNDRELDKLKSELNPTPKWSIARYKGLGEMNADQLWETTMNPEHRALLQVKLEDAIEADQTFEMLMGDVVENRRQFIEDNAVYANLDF
T1 sequence (Q5HGI2 whole entry): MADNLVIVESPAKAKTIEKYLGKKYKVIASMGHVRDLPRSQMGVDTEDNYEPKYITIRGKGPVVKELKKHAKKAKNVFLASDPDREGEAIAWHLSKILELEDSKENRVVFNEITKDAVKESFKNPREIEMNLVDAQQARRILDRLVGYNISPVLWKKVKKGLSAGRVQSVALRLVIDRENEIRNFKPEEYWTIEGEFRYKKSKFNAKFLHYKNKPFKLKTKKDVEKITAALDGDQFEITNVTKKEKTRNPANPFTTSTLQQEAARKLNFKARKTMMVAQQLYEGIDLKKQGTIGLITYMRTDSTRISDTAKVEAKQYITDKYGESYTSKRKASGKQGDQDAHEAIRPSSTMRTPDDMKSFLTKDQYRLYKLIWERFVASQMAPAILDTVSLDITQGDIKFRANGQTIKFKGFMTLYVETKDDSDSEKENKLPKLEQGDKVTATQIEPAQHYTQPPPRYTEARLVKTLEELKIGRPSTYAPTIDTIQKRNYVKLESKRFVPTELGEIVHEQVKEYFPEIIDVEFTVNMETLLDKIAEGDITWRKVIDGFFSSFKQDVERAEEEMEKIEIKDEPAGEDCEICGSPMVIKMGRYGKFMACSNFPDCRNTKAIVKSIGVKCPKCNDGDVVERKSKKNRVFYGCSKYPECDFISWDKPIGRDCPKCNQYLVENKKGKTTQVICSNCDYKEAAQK

With `Cc1cc(O)cc2oc(=O)c3c(O)cc(O)cc3c12` [compound 1, alternariol] the “plasmid pCT74 unwinding, agarose gel” value [1] was “AOH effectively blocked the unwinding activities of the above four topoisomerases”, the “plasmid pCT74 unwinding, agarose gel” value [2] was “AOH effectively blocked the unwinding activities of the above four topoisomerases” and the “plasmid pCT74 unwinding, agarose gel” value [3] was “AOH effectively blocked the unwinding activities of the above four topoisomerases”. The “plasmid pCT74 unwinding, agarose gel” value [4] was “AOH effectively blocked the unwinding activities of the above four topoisomerases”.
